Entries after “also recorded” stand apart in the source; their conditions may differ.
Legend:
Format in all cases: in vivo
HPV45 pseudovirions = test: Cutaneous HPV challenge with HPV45 pseudovirions (luciferase reporter); details: BALB/c mice vaccinated s.c. three times, luminescence 72 hrs post-challenge
Procedure: (§1) Immunization of mice. All animal experimental work was done in accordance with Johns Hopkins Medical Institutions Animal Care and Use Committee guidelines. BALB/c and C57BL/6 (NCI, Frederick, Md.) wild type or MyD88 (D. Golenbock, UMass Medical Center, […], Mass.), CD40, or MHCII deficient mice (Jackson Laboratories, Bar Harbor, Me.) were used. Mice aged 4-6 wks were immunized with P25-P2C-HPV vaccine or various controls. All vaccine and control peptides were dissolved in phosphate-buffered saline (PBS). Mice received two booster immunizations at 4 wks and 8 wks after priming immunization in the same fashion and dose. (i) subcutaneous (s.c.): Each mouse was administered 20 nmols of vaccine in a total volume of 100 μL or an equivalent amount of several control preparations at the base of the tail. (ii) intranasal (i.n.): Anesthesia induction was accomplished within 3 to 5 mins using a chamber filled with 2.5% isoflurane (Baxter, Deerfield, Ill.). While anesthetized, each mouse was administered 20 nmols of lipopeptide in a total volume of 50 μL of vaccine or an equivalent amount of several control preparations via controlled micropipetting into the nares.
(§2) Cutaneous HPV challenge. […] Equal areas encompassing the site of virus inoculation were analyzed using Living Image 2.20 software (Xenogen), and background was determined by challenge with non-infectious HPV pseudovirions lacking L2.

HPV16 pseudovirions = test: Cutaneous HPV challenge with HPV16 pseudovirions (luciferase reporter); details: BALB/c mice vaccinated s.c. three times, bioluminescence 3 days post-challenge
Procedure: as §1, §2

HPV16 L2 17-36 = HPV16 L2 17-36 peptide ELISA of sera from immunized mice; details: mice vaccinated s.c. or i.n.; compared with saline controls
Procedure: as §1
Collection and quantification of HPV specific antibody responses. […] Presence of serum antibodies against HPV16 was assessed by enzyme-linked immunosorbent assays (ELISA). […]

| Substance | protection from cutaneous challenge with HPV45 pseudovirions (HPV45 pseudovirions) | protection from cutaneous challenge with HPV16 pseudovirions (HPV16 pseudovirions) | L2-specific antibody (immune) response by ELISA (HPV16 L2 17-36) |
| --- | --- | --- | --- |
| HPV16 L1 VLP: virus-like particles of HPV16 major capsid protein L1, control vaccine | did not protect | protected mice from cutaneous challenge | – |
| QLYKTCKQAGTCPPDIIPKV (listed as Human papillomavirus) [HPV16 L2 17-36 peptide] | did not protect | failed to protect the mice | immune responses similar to saline controls; also recorded: failed to induce an L2-specific antibody response |

— US9138470B2, “Multi-component L2 vaccine for prevention of human papilloma virus infection” (The Johns Hopkins University, priority 2007, dated 2015)
